Measurements as given in patent US8889140B2, “Compositions and methods for tissue repair” (TransTarget, Inc., priority 2007, dated 2014).
Entries after “also recorded” stand apart in the source; their conditions may differ. Where no end group is shown, it is not given here.

What was measured:
Format in all cases: cell-based, human
HUVEC cells [1] = experiment: Cell attachment assay (MTS) on coated wells; conditions: substrate coated at 20, 50, 100 μg/ml (fibronectin 10 and 100 μg/ml), 30 minute incubation, vs BSA 2 mg/ml
Procedure: Immulon 1B, untreated 96-well plates (CoStar), and untreated 35 mm dishes (CoStar) were purchased from Fisher Scientific (Pittsburg, Pa.). Human umbilical vein endothelial cells (HUVECs), cell culture media and supplements were purchased from Lonza (Basel, Switzerland). EMD peptides as shown in SEQ ID Nos: 1-4, were synthesized by Commonwealth Biotechnologies Inc., (Richmond, Va.). Amino acid analysis was performed on the peptides to verify the amino acid sequence.
For the adhesion studies 96-well Immulon 1B plates were used. Various concentrations of the EMD peptides (SEQ ID Nos: 1-4) were tested for their ability to bind cells, and compared to the full-length protein, from which the EMD peptides were derived as positive controls. Bovine Serum Albumin (BSA) treated wells were used as a negative control. Full-length collagen IV, and the EMD peptides Hep I, Hep III, FCHV, and RGD were tested at concentrations of 20 μg/ml, 50 μg/ml, and 100 μg/ml. Full length fibronectin was tested at concentrations of 10 μg/ml and 100 μg/ml. Negative control wells were coated with BSA at a concentration of 2 mg/ml. Fifty μL of protein or EMD peptide solutions at the various concentrations was added separate wells and incubated at 37° C. for at least 18 hours. The protein or peptide solution was then removed and the wells were blocked for 2 hours at 37° C. with 2 mg/mL BSA solution. Following the blocking procedure, wells were washed twice with PBS. HUVEC cells (Lonza, Basel Switzerland) were then added to the wells at a concentration of 5×10^3 to 1×10^4 cells per well. Following a thirty-minute incubation, […] wells were washed and cell adhesion was determined using an MTS (3-(4,5-dimethylthiazol-2-yl)-5-(3-carboxymethoxyphenyl)-2-(4-sulfophenyl)-2H-tetrazolium, inner salt) tetrazolium/formazan assay (Promega, Madison, Wis.) according to the manufacturer's instructions.

HUVEC cells [2] = experiment: Haptotactic cell migration assay, modified Boyden chamber; conditions: 6 hours; for haptotactic migration compared to untreated membranes: membrane coated at 500 ng/ml to 300 μg/ml, normalized to uncoated control
Procedure: In order to test the ability of EMD peptides to recruit cells haptotactic migration assays with Hep I (SEQ ID NO:1), Hep ITT (SEQ TD NO:2), FC/HV (SEQ ID NO:3), RGD (SEQ ID NO:4), FN, and Col IV were conducted using a modified Boyden chamber. Haptotactic migration was performed in triplicate and was assessed using a modified Boyden chamber (Corning, CoStar, Acton, Mass.). The assay was carried out as follows: the lower chamber was first blocked with 10% BSA for at least 30 minutes at 37° C. followed by 3 washings with PBS. The lower surface of the membrane on the upper chamber was coated with approximately 10 μL of protein or EMD peptide solution having a concentration between 500 ng/mL-300 μg/mL and allowed to incubate for 15-30 minutes at 37° C. and then allowed to air dry at room temperature under aseptic conditions. At least one assay was performed for each concentration. Basal cell media supplemented with 0.5% BSA was then added to the lower chamber and 100 μL of H U V ECs (1×10^4 to 2×10^4 cells) in the same cell media was added to the upper chamber. The chambers were then incubated at 37° C., 5.0% CO2 for 6 hours. Upon completion of the incubation period, the cells on the membrane of the upper chamber were fixed with 4% paraformaldehyde followed by removal of the cells on the upper side of the membrane with a Q-tip. Next, the membrane was carefully removed from the chamber, dipped in a 1:4000 dilution of Hoechst 33342 (Invitrogen, Carlsbad, Calif.) and placed on a glass slide. Using a fluorescent microscope (Nikon Eclipse E800) at 10× magnification, five random fields of view were photographed on each membrane for determination of the area cell density.
In order to allow for direct comparison, the area cell density of migrated cells was normalized to the area cell density of migrated cells on the uncoated (0 μg/mL) control membrane. See, FIG. 3.

HUVEC cells [3] = experiment: Cell proliferation assay (MTS) on coated wells; conditions: substrate coated at 20, 50, 100 μg/ml (fibronectin 10 and 100 μg/ml), 1-4 days, vs BSA 2 mg/ml, p<0.05
Procedure: To determine if EMD peptides can activate cells by stimulating cellular proliferation, 96-well plates coated using the same protocol as described above for the cell attachment assay was used. Following treatment of the wells, HUVEC cells (Lonza, Basel Switzerland) were then added to the wells at a concentration of 5×10^3 to 1×10^4 cells per well and incubated under standard culture conditions for 1, 2, 3 or 4 days. Cell proliferation was then determined at the end of the incubation period using an MTS tetrazolium/formazan assay (Promega, Madison, Wis.) according to the manufacturer's instructions.

| Substance | cell attachment compared to BSA control (HUVEC cells [1]; p<0.05) | haptotactic migration compared to untreated membranes (HUVEC cells [2]; p<0.05) | haptotactic migration compared to untreated membranes (HUVEC cells [2]; p<0.05, listed as FC/HV) | cell proliferation (cell activation) compared to BSA control (HUVEC cells [3]) | concentrations showing statistically significant migration (HUVEC cells [2]; coated membrane, vs uncoated control membrane) | cell attachment compared to BSA control (HUVEC cells [1]; p<0.05, listed as Fibronectin) |
| --- | --- | --- | --- | --- | --- | --- |
| WQPPRARI-OH [FCHV] | not statistically different from that of the BSA treated wells; also recorded: not significantly different from that of the BSA control | did not promote haptotactic migration | did not show statistically significant migration at any of the concentrations tested | not different from that of cells cultured in wells coated with BSA; also recorded: not statistically different as compared to the BSA control | – | – |
| TAGSCLRKFSTMY-OH [Hep I] | not statistically different from that of the BSA treated wells; also recorded: not significantly different from that of the BSA control | promoted haptotactic migration | – | increased cellular proliferation; also recorded: significantly better at promoting cell proliferation | greater than 1 μg/ml | – |
| GEFYFDLRLKGDKY-OH [Hep III] | increased cell attachment; also recorded: significantly better at promoting cell attachment | significant migration compared to control; also recorded: promoted haptotactic migration | – | increased cellular proliferation; also recorded: significantly better at promoting cell proliferation | – | – |
| GRGDSPASSPISC-OH | increased cell attachment; also recorded: significantly better at promoting cell attachment | significant migration compared to control; also recorded: promoted haptotactic migration | – | increased cellular proliferation; also recorded: significantly better at stimulating cellular proliferation | – | – |
| fibronectin: Full length fibronectin, positive control [reference compound] | significantly better at promoting cell attachment | promoted haptotactic migration | – | increased cellular proliferation; also recorded: significantly better at stimulating cellular proliferation | – | increased cell attachment |
